Measurements reported in PubChem BioAssay (NCI).
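Assay format: 96-well plates, 48-hour exposure. GI50: concentration for 50% inhibition of growth. At the TGI there is no net growth.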

Experiments:
Experiment in all cases: NCI tumour cell line growth inhibition, 48 h
HCT-116 colon = system: HCT-116 colon
HCT-15 colon = system: HCT-15 colon
HL-60(TB) leukemia = system: HL-60(TB) leukemia
HT29 colon = system: HT29 colon
RXF 393 renal = system: RXF 393 renal
NCI-H226 lung = system: NCI-H226 lung
UACC-62 melanoma = system: UACC-62 melanoma
SN12C renal = system: SN12C renal
NCI-H460 lung = system: NCI-H460 lung
MDA-MB-435 = system: MDA-MB-435
SW-620 colon = system: SW-620 colon
MCF7 breast = system: MCF7 breast
SNB-19 CNS = system: SNB-19 CNS
M14 melanoma = system: M14 melanoma
MOLT-4 leukemia = system: MOLT-4 leukemia
SK-MEL-28 melanoma = system: SK-MEL-28 melanoma
NCI-H23 lung = system: NCI-H23 lung
OVCAR-4 ovarian = system: OVCAR-4 ovarian
CCRF-CEM leukemia = system: CCRF-CEM leukemia
HCC-2998 colon = system: HCC-2998 colon
MDA-MB-231 breast = system: MDA-MB-231 breast
KM12 colon = system: KM12 colon
OVCAR-8 ovarian = system: OVCAR-8 ovarian
COLO 205 colon = system: COLO 205 colon
UO-31 renal = system: UO-31 renal
LOX IMVI melanoma = system: LOX IMVI melanoma
HS 578T breast = system: HS 578T breast
U251 CNS = system: U251 CNS
IGROV1 ovarian = system: IGROV1 ovarian
SK-MEL-2 melanoma = system: SK-MEL-2 melanoma
T-47D breast = system: T-47D breast
SF-539 CNS = system: SF-539 CNS
TK-10 renal = system: TK-10 renal
SK-MEL-5 melanoma = system: SK-MEL-5 melanoma
DU-145 prostate = system: DU-145 prostate
K-562 leukemia = system: K-562 leukemia
A549 NSCLC = system: A549 NSCLC
BT-549 breast = system: BT-549 breast
786-0 renal = system: 786-0 renal
SF-295 CNS = system: SF-295 CNS
SNB-75 CNS = system: SNB-75 CNS
A498 renal = system: A498 renal
OVCAR-3 ovarian = system: OVCAR-3 ovarian
OVCAR-5 ovarian = system: OVCAR-5 ovarian
RPMI-8226 leukemia = system: RPMI-8226 leukemia
EKVX NSCLC = system: EKVX NSCLC
PC-3 prostate = system: PC-3 prostate
SK-OV-3 ovarian = system: SK-OV-3 ovarian
NCI-H522 lung = system: NCI-H522 lung
NCI/ADR-RES ovarian = system: NCI/ADR-RES ovarian
SF-268 CNS = system: SF-268 CNS
UACC-257 melanoma = system: UACC-257 melanoma
ACHN renal = system: ACHN renal
HOP-62 NSCLC = system: HOP-62 NSCLC
SR leukemia = system: SR leukemia
CAKI-1 renal = system: CAKI-1 renal

CC(C)(O)/C=C/C(=O)[C@](C)(O)[C@H]1[C@H](O)C[C@@]2(C)[C@H]3CC=C4[C@@H](C[C@H](O)C(=O)C4(C)C)[C@]3(C)C(=O)C[C@]12C
GI50 (HCT-116 colon): 24.3 nM | TGI (HCT-116 colon): 7140 nM | GI50 (HCT-15 colon): 34.4 nM | TGI (HCT-15 colon): > 16700 nM | GI50 (HL-60(TB) leukemia): 203 nM | TGI (HL-60(TB) leukemia): 1460 nM | GI50 (HT29 colon): 25.8 nM | TGI (HT29 colon): > 16700 nM | GI50 (RXF 393 renal): 14.3 nM | TGI (RXF 393 renal): 31.8 nM | GI50 (NCI-H226 lung): 29.6 nM | TGI (NCI-H226 lung): 4660 nM | GI50 (UACC-62 melanoma): 26.3 nM | TGI (UACC-62 melanoma): 3720 nM | GI50 (SN12C renal): 46.6 nM | TGI (SN12C renal): > 12900 nM | GI50 (NCI-H460 lung): 24.7 nM | TGI (NCI-H460 lung): > 16700 nM | GI50 (MDA-MB-435): 22 nM | TGI (MDA-MB-435): 5770 nM | GI50 (SW-620 colon): 28.1 nM | TGI (SW-620 colon): > 16700 nM | GI50 (MCF7 breast): 31.5 nM | TGI (MCF7 breast): > 16700 nM | GI50 (SNB-19 CNS): 75.2 nM | TGI (SNB-19 CNS): 3250 nM | GI50 (M14 melanoma): 17.6 nM | TGI (M14 melanoma): 1710 nM | GI50 (MOLT-4 leukemia): 1170 nM | TGI (MOLT-4 leukemia): 16300 nM | GI50 (SK-MEL-28 melanoma): 13.9 nM | TGI (SK-MEL-28 melanoma): 39.3 nM | GI50 (NCI-H23 lung): 450 nM | TGI (NCI-H23 lung): > 16700 nM | GI50 (OVCAR-4 ovarian): 5.58 nM | TGI (OVCAR-4 ovarian): 45.1 nM | GI50 (CCRF-CEM leukemia): 20.8 nM | TGI (CCRF-CEM leukemia): > 8450 nM | GI50 (HCC-2998 colon): 118 nM | TGI (HCC-2998 colon): > 16700 nM | GI50 (MDA-MB-231 breast): 28.1 nM | TGI (MDA-MB-231 breast): 307 nM | GI50 (KM12 colon): 113 nM | TGI (KM12 colon): > 16700 nM | GI50 (OVCAR-8 ovarian): 496 nM | TGI (OVCAR-8 ovarian): > 16700 nM | GI50 (COLO 205 colon): 27.7 nM | TGI (COLO 205 colon): > 16700 nM | GI50 (UO-31 renal): 43.2 nM | TGI (UO-31 renal): 312 nM | GI50 (LOX IMVI melanoma): 180 nM | TGI (LOX IMVI melanoma): > 3520 nM | GI50 (HS 578T breast): 52.9 nM | TGI (HS 578T breast): 2730 nM | GI50 (U251 CNS): 54.1 nM | TGI (U251 CNS): 262 nM | GI50 (IGROV1 ovarian): 70.7 nM | TGI (IGROV1 ovarian): 460 nM | GI50 (SK-MEL-2 melanoma): 16.2 nM | TGI (SK-MEL-2 melanoma): 52.5 nM | GI50 (T-47D breast): 217 nM | TGI (T-47D breast): > 14000 nM | GI50 (SF-539 CNS): 16.7 nM | TGI (SF-539 CNS): 130 nM | GI50 (TK-10 renal): 30.7 nM | TGI (TK-10 renal): 89.5 nM | GI50 (SK-MEL-5 melanoma): 58 nM | TGI (SK-MEL-5 melanoma): 2310 nM | GI50 (DU-145 prostate): 36.7 nM | TGI (DU-145 prostate): 4300 nM | GI50 (K-562 leukemia): 39.4 nM | TGI (K-562 leukemia): > 16700 nM | GI50 (A549 NSCLC): 51.1 nM | TGI (A549 NSCLC): > 16700 nM | GI50 (BT-549 breast): 16.1 nM | TGI (BT-549 breast): 54.6 nM | GI50 (786-0 renal): 51.1 nM | TGI (786-0 renal): 249 nM | GI50 (SF-295 CNS): 102 nM | TGI (SF-295 CNS): 872 nM | GI50 (SNB-75 CNS): 28.9 nM | TGI (SNB-75 CNS): 108 nM | GI50 (A498 renal): 17.7 nM | TGI (A498 renal): 47.3 nM | GI50 (OVCAR-3 ovarian): 39.5 nM | TGI (OVCAR-3 ovarian): 1020 nM | GI50 (OVCAR-5 ovarian): 42.9 nM | TGI (OVCAR-5 ovarian): > 16700 nM | GI50 (RPMI-8226 leukemia): 41.9 nM | TGI (RPMI-8226 leukemia): > 6220 nM | GI50 (EKVX NSCLC): 45.8 nM | TGI (EKVX NSCLC): > 16700 nM | GI50 (PC-3 prostate): 283 nM | TGI (PC-3 prostate): > 16700 nM | GI50 (SK-OV-3 ovarian): 56 nM | TGI (SK-OV-3 ovarian): 236 nM | GI50 (NCI-H522 lung): 28.7 nM | TGI (NCI-H522 lung): 184 nM | GI50 (NCI/ADR-RES ovarian): 71.4 nM | GI50 (SF-268 CNS): 19.6 nM | TGI (SF-268 CNS): 88.2 nM | GI50 (UACC-257 melanoma): 42 nM | TGI (UACC-257 melanoma): 541 nM | GI50 (ACHN renal): 53.7 nM | TGI (ACHN renal): > 16700 nM | GI50 (HOP-62 NSCLC): 81.8 nM | TGI (HOP-62 NSCLC): 419 nM | GI50 (SR leukemia): 41.4 nM | TGI (SR leukemia): > 16700 nM | GI50 (CAKI-1 renal): 13.7 nM | TGI (CAKI-1 renal): 49.9 nM
